In general, Ki refers to a dissociation constant, usually derived from enzyme kinetics or from competition with a known ligand. For orientation: IC50 means the midpoint of a concentration-inhibition curve.

The text below walks through data of US12441718B2, “Selective angiotensin II compounds” (VICORE PHARMA AB, priority 2021, dated 2025).

The target of one data set is T1, CYP2D6 (Homo sapiens, UniProt P10635).
T1 construct: isoform-specific substrates incubated with human liver microsomes; tissue Eurofins ITEMG232 (protocol number); host or cells: human liver microsomes
T1 sequence (P10635 whole entry, canonical isoform): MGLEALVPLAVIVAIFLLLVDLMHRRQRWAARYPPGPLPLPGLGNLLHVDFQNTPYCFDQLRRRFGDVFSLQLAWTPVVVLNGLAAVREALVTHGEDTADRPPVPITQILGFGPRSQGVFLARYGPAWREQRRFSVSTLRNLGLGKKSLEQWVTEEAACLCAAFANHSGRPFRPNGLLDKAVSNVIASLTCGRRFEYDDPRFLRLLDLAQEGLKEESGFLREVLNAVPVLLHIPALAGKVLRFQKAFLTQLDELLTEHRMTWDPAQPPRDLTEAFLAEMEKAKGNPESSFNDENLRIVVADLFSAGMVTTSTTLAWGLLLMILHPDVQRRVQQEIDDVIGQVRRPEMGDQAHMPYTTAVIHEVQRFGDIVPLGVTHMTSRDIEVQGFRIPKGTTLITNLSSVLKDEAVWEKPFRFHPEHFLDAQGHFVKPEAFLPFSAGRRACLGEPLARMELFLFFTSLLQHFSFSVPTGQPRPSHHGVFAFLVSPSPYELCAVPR
Nature of the data set: CYP inhibition in human liver microsomes (Eurofins ITEMG232). Format: in vitro ADME. The conditions noted are these: probe dextromethorphan, substrate dextromethorphan, read-out: CYP2D6 Inh %.

Another data set deals with T2, CYP1A2 (Homo sapiens, UniProt P05177).
T2 construct: isoform-specific substrates incubated with human liver microsomes; tissue Eurofins ITEMG232 (protocol number); host or cells: human liver microsomes
T2 sequence (P05177 whole entry, canonical isoform): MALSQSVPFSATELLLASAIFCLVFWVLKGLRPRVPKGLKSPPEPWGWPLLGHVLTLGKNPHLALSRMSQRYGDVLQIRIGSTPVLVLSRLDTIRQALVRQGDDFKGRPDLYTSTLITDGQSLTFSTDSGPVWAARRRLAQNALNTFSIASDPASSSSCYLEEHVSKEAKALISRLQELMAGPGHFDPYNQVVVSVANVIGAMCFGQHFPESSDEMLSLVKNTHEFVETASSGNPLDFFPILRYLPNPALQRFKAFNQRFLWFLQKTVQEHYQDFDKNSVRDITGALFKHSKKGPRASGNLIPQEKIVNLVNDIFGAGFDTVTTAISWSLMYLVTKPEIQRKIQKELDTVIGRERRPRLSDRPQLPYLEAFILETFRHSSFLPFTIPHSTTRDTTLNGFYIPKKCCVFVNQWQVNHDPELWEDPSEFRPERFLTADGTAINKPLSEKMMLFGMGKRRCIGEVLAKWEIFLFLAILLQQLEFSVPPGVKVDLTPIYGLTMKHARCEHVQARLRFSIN
Nature of the data set: in vitro. Format: in vitro ADME. The conditions noted are these: human, microsomes, human liver microsomes, substrate phenacetin, read-out: CYP1A2 Inh %. On the technique in general: Liver microsomes are a subcellular fraction often used to study metabolism.

The target in the next data set is CYP2C9 (Homo sapiens, UniProt P11712). The data set can be described thus: CYP inhibition in human liver microsomes (Eurofins ITEMG232). It counts as in vitro ADME. More on the design: isoform-specific substrates incubated with human liver microsomes; tissue Eurofins ITEMG232 (protocol number); host or cells: human liver microsomes. The settings on record: human, probe diclofenac, substrate diclofenac, read-out: CYP2C9 Inh %.
CYP2C9, sequence (P11712 whole entry, canonical isoform): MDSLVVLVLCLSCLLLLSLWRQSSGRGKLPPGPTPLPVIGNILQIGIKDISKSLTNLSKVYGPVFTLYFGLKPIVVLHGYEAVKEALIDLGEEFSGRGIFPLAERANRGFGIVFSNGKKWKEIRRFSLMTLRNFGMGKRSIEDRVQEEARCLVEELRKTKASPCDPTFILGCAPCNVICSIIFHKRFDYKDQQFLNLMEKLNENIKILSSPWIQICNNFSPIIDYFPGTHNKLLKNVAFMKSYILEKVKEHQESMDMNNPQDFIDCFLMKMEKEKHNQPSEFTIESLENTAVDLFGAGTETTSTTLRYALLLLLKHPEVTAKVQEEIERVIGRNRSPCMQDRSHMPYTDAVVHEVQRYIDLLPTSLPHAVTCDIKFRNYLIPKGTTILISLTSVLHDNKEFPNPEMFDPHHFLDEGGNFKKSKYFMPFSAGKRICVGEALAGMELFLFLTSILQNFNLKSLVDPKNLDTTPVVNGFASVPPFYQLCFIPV

The target of the next data set is T3, CYP2B6 (Homo sapiens, UniProt P20813).
T3 construct: isoform-specific substrates incubated with human liver microsomes; tissue Eurofins ITEMG232 (protocol number); host or cells: human liver microsomes
T3 sequence (P20813 1-491): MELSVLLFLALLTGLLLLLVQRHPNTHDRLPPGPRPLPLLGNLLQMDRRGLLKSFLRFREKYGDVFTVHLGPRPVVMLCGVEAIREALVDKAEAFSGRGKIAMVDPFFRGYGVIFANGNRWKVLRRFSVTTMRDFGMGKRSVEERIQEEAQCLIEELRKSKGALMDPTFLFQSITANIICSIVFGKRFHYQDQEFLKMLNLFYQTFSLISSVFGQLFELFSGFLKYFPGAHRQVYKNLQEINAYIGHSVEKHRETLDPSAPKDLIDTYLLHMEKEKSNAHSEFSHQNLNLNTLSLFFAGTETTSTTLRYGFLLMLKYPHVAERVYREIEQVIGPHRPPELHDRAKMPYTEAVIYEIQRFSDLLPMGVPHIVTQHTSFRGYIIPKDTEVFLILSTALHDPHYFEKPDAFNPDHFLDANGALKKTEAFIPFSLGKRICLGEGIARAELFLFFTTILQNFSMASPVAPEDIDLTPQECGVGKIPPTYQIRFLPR
Described as above. Format: in vitro ADME. The settings on record: probe bupropion, substrate bupropion, read-out: CYP2B6 Inh %.

A further data set relates to CYP3A4&5. Nature of the data set: in vitro. The conditions noted are these: human, human liver microsomes, probe testosterone.
The target of a further data set is T4, CYP2C8 (Homo sapiens, UniProt P10632).
T4 construct: isoform-specific substrates incubated with human liver microsomes; tissue Eurofins ITEMG232 (protocol number); host or cells: human liver microsomes
T4 sequence (P10632 1-490): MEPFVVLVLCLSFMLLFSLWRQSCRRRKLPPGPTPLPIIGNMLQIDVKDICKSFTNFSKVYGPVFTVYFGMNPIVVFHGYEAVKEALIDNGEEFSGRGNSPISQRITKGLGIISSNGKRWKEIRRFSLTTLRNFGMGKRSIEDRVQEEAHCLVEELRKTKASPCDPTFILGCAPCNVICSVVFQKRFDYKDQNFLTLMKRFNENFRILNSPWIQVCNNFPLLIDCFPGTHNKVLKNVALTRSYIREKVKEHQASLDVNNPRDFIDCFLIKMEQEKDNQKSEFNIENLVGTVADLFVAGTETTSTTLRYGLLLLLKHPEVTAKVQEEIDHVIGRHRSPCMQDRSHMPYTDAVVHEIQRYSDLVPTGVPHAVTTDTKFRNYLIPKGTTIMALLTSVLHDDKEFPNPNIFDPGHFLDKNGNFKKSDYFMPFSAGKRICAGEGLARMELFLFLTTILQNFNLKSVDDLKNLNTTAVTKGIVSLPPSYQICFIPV
The data set can be described thus: CYP inhibition in human liver microsomes (Eurofins ITEMG232). Format: in vitro ADME. The settings on record: human, probe paclitaxel and amodiaquine, substrate paclitaxel and amodiaquine, read-out: CYP2C8 Inh %.

The target in data set [1] is T5, human recombinant AT2 receptor (Homo sapiens, UniProt P50052).
T5 construct: purchased Eurofins ITEM26 (protocol number)
T5 sequence (P50052 1-363): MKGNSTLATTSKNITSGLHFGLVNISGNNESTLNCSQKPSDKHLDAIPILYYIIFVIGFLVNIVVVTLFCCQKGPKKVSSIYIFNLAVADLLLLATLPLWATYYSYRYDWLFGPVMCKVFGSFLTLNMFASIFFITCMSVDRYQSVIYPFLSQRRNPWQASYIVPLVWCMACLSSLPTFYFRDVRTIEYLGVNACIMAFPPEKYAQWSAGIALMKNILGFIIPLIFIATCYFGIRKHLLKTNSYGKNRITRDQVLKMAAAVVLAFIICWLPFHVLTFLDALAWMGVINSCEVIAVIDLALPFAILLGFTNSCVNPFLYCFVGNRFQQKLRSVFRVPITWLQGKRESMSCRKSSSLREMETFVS
The data set can be described thus: Binding to AT2 receptor, radiometric scintillation assay (Eurofins ITEM26). The conditions noted are these: ligand 125I CGP 42112A, * rows = mean of runs; for Ki: seven-point dose-response curve; for IC50: test compounds at 1, 10, 100 and 1000 nM, read-out: AT2 GraFit IC50.

In another data set the target is T6, CYP2C19 (Homo sapiens, UniProt P33261).
T6 construct: isoform-specific substrates incubated with human liver microsomes; tissue Eurofins ITEMG232 (protocol number); host or cells: human liver microsomes
T6 sequence (P33261 whole entry, canonical isoform): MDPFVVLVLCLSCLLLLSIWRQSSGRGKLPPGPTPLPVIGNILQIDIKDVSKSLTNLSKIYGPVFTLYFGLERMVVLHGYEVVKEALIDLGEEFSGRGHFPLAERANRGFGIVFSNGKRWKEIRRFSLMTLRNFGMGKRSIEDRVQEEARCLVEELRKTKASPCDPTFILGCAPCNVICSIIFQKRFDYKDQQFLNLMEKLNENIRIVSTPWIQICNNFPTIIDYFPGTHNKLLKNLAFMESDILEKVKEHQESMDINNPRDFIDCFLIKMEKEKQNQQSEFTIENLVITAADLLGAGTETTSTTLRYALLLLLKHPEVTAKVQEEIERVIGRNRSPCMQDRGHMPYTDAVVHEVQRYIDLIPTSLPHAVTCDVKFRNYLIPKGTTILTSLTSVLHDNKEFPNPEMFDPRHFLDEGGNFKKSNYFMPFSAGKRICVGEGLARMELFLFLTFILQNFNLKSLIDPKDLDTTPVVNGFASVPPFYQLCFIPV
The data set can be described thus: CYP inhibition in human liver microsomes (Eurofins ITEMG232). It counts as in vitro ADME. The conditions noted are these: human, probe omeprazole, substrate omeprazole, read-out: CYP2C19 Inh %.

Data set [2] in a line: Metabolic stability in pooled human liver microsomes. The conditions noted are these: human, pooled human liver microsomes, pooled human liver microsomes 0.5 mg/mL, 1 μM test compound, 37° C., * rows = mean of two runs. It counts as in vitro ADME. The protocol: Pooled human liver microsomes in PBS at a concentration of 0.5 mg/mL was incubated with or without 1 mM NADPH for 70 min at 37° C. Test compound was added after 10 minutes to a final concentration of 1 μM. Samples were withdrawn at 0, 5, 15 and 60 minutes and added to test tubes containing acetonitrile, to stop the reaction, and with terfenadine, used as internal standard. After centrifugation at 10 000×g for 5 minutes the supernatant was diluted 1:1 with 1% formic acid. Samples were separated on a reverse phase column and detected by triple quadrupole MSMS (Agilant model 6540). The concentration of the parent compound at the different time points was measured with an external standard curve using terfenadine as internal standard and the initial metabolic rate in the presence or absence of NADPH calculated.

Another data set addresses CYP3A4 (Homo sapiens, UniProt P08684). The data set can be described thus: CYP inhibition in human liver microsomes (Eurofins ITEMG232), midazolam substrate. The settings on record: human, probe midazolam, read-out: CYP3A4 midazolam Inh %. Format: in vitro ADME. Further details: isoform-specific substrates incubated with human liver microsomes; tissue Eurofins ITEMG232 (protocol number); host or cells: human liver microsomes.

The mark [3] stands for this setting: with 1 mM NADPH, read-out: T1/2, + NaDPH.
Where [4] appears, read: without NADPH, read-out: T1/2, no NaDPH.

SMILES strings stand for the structures. Read-outs that look alike come from different tables or passages of the source.

CYP3A4, sequence (P08684 whole entry, canonical isoform): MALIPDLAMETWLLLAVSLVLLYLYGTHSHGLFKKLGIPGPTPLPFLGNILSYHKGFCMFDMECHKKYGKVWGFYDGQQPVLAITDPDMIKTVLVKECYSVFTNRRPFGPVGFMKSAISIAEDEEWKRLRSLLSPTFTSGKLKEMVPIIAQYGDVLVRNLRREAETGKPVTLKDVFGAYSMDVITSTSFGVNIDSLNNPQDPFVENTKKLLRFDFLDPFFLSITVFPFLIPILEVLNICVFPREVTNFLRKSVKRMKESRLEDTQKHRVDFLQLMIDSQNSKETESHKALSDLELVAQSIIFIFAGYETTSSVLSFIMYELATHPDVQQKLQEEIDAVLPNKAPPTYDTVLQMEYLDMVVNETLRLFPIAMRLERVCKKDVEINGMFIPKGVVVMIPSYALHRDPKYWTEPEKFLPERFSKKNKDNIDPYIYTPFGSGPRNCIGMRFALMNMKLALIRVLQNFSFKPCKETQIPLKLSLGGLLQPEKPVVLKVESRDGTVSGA
Method for CYP1A2: The following substrates were used; CYP1A phenacetin, CYP2B36 bupropion, CYP2C8 paclitaxel and amodiaquine, CYP2C9 diclofenac, CYP2C19 omeprazole, CYP2D6 dextromethorphan, CYP3A midazolam and testosterone.
At the end of the incubation, the formation of metabolite was monitored by HPLC-MS/MS as the peak area response.

Turning to `CC(C)Cc1ccc(S(=O)(=O)Nc2ncc(Br)cn2)c(-c2ccc(Cn3ccnc3C(C)(C)C)c(F)c2)c1` [Example 11, N-(5-Bromopyrimidin-2-yl)-4′-((2-(tert-butyl)-1H-imidazol-1-yl)methyl)-3′-fluoro-5-isobutyl-[1,1′-biphenyl]-2-sulfonamide], the inhibition at 10 µM is 20% on CYP2D6; 14.3% on CYP1A2; 82% on CYP2C9; 48% at CYP2B6; -19.3% in the data set with CYP3A4&5; 89.6% on CYP2C8. For the same molecule, the figures for the inhibition at 10 µM on CYP2C19 and on CYP3A4 were 47.5% and 16.1%, respectively. Also, the Ki in data set [1] turned out to be 1.54 nM. For the same molecule, in [1], the half-inhibitory concentration (IC50) stood at 3.07 nM. The half-life at 1 μM in [2] (setting [3]) and in data set [2] (setting [4]) was greater than 60 min in each case.

Consider `CC(C)Cc1ccc(S(=O)(=O)Nc2nccs2)c(-c2ccc(Cn3ccnc3C(C)(C)C)c(F)c2)c1` [Example 8, 4′-((2-(tert-Butyl)-1H-imidazol-1-yl)methyl)-3′-fluoro-5-isobutyl-N-(thiazol-2-yl)-[1,1′-biphenyl]-2-sulfonamide], for which the inhibition at 10 µM was found to be 32.6% on CYP2D6; 43% on CYP1A2; 86.6% at CYP2C9; 55% at CYP2B6; 42.6% in the data set on CYP3A4&5; 88.3% on CYP2C8. For the same molecule, the values for the inhibition at 10 µM at CYP2C19 and at CYP3A4 were 71.2% and 0.4%, respectively. Also, the inhibitory constant (Ki) in data set [1] was determined as 2.92 nM. Further, the IC50 in data set [1] was determined as 5.85 nM. The half-life at 1 μM was 34 min in data set [2] (setting [3]) and greater than 60 min in data set [2] (setting [4]).

Consider `COc1ncnc(OC)c1NS(=O)(=O)c1ccc(CC(C)C)cc1-c1ccc(Cn2ccnc2C(C)(C)C)c(F)c1` [Example 25, 4′-((2-(tert-Butyl)-1H-imidazol-1-yl)methyl)-N-(4,6-dimethoxypyrimidin-5-yl)-3′-fluoro-5-isobutyl-[1,1′-biphenyl]-2-sulfonamide], for which the inhibition at 10 µM is 11.9% at CYP2D6; -5.4% on CYP1A2; 80.7% at CYP2C9; 19.4% on CYP2B6; 57.3% with CYP3A4&5; 40% on CYP2C8. For the same molecule, the results for the inhibition at 10 µM at CYP2C19 and at CYP3A4 were 65.8% and 65.1%, respectively. The Ki in data set [1] turned out to be 75 nM. In addition, in [1], the IC50 came out at 150 nM. In addition, the half-life at 1 μM in [2] (setting [3]) was 6 min; in [2] (setting [4]) it was greater than 60 min.

With `CCc1nccn1Cc1ccc(-c2cc(CC(C)C)ccc2S(=O)(=O)Nc2ncccn2)cc1F` [Example 29, 4′-((2-Ethyl-1H-imidazol-1-yl)methyl)-3′-fluoro-5-isobutyl-N-(pyrimidin-2-yl)-[1,1′-biphenyl]-2-sulfonamide], the inhibition at 10 µM at CYP2D6 amounted to 7.4%; at CYP1A2 it was 13.6%; on CYP2C9 it was 43%; at CYP2B6, 25%; in the data set on CYP3A4&5, 21.8%; at CYP2C8 it was 58.2%. Further, the figures for the inhibition at 10 µM on CYP2C19 and on CYP3A4 were 43.6% and 15.4%, respectively. For the same molecule, in [1], the inhibition constant Ki was 0.45 nM. The IC50 in data set [1] is 0.9 nM. The half-life at 1 μM in data set [2] (setting [3]) and in data set [2] (setting [4]) was greater than 60 min each time.

On to `Cc1nc(NS(=O)(=O)c2ccc(CC(C)C)cc2-c2ccc(Cn3ccnc3C(C)(C)C)cc2)oc1C` [Example 13, 4′-((2-(tert-Butyl)-1H-imidazol-1-yl)methyl)-N-(4,5-dimethyloxazol-2-yl)-5-isobutyl-[1,1′-biphenyl]-2-sulfonamide], for which the inhibition at 10 µM is 17.6% at CYP2D6; 19.8% on CYP1A2; 50.9% at CYP2C9; 30.4% at CYP2B6; -2.8% in the data set with CYP3A4&5; 71.3% on CYP2C8. Also, the inhibition at 10 µM at CYP2C19 is 52.1%; on CYP3A4 it was -48.7%. Besides, the inhibitory constant (Ki) in data set [1] was 22.9 nM. Moreover, the IC50 in [1] was 45.8 nM. Besides, the half-life at 1 μM was 34 min in [2] (setting [3]) and greater than 60 min in data set [2] (setting [4]).

Turning to `COc1ccc(NS(=O)(=O)c2ccc(CC(C)C)cc2-c2ccc(Cn3ccnc3C(C)(C)C)cc2)nn1` [Example 14, 4′-((2-(tert-Butyl)-1H-imidazol-1-yl)methyl)-5-isobutyl-N-(6-methoxypyridazin-3-yl)-[1,1′-biphenyl]-2-sulfonamide], the inhibition at 10 µM is 24.6% on CYP2D6; 30% at CYP1A2; 55.5% on CYP2C9; 25.9% on CYP2B6; 24.8% in the data set with CYP3A4&5; 74.3% at CYP2C8. The inhibition at 10 µM at CYP2C19 is 58.4%; on CYP3A4, 10.3%. For the same molecule, the Ki in [1] came to 2.6 nM. Further, in [1], the IC50 is 5.2 nM. Moreover, the half-life at 1 μM was 20 min in data set [2] (setting [3]) and greater than 60 min in data set [2] (setting [4]).

Take `CC(C)Cc1ccc(S(=O)(=O)Nc2ncc(Cl)cn2)c(-c2ccc(Cn3ccnc3C(C)(C)C)c(F)c2)c1` [Example 10, 4′-((2-(tert-Butyl)-1H-imidazol-1-yl)methyl)-N-(5-chloropyrimidin-2-yl)-3′-fluoro-5-isobutyl-[1,1′-biphenyl]-2-sulfonamide]: the inhibition at 10 µM is 31.9% at CYP2D6; 37.7% on CYP1A2; 87% at CYP2C9; 58.3% on CYP2B6; -17.5% with CYP3A4&5; 93.2% at CYP2C8. In addition, the inhibition at 10 µM on CYP2C19 was 55.3%; at CYP3A4, 32.1%. The Ki in data set [1] worked out at 1.5 nM. The half-maximal inhibitory concentration (IC50) in [1] was 3 nM. For the same molecule, the half-life at 1 μM in [2] (setting [3]) and in data set [2] (setting [4]) was greater than 60 min each time.
